Measurements as given in patent US20260199485A1, “RNA DEGRADERS AND USES THEREOF” (Arrakis Therapeutics, Inc., priority 2022, published 2026).

Each molecule was assayed against T1, CNOT7 (Homo sapiens, UniProt Q9UIV1) (assay: Binding of compounds to CNOT7 by surface plasmon resonance (SPR)). Conditions: Table 4; dissociation constant for CNOT7.
T1 construct: biotin (biotinylated); purchased Ichor Life Sciences
T1 sequence (Q9UIV1 whole entry): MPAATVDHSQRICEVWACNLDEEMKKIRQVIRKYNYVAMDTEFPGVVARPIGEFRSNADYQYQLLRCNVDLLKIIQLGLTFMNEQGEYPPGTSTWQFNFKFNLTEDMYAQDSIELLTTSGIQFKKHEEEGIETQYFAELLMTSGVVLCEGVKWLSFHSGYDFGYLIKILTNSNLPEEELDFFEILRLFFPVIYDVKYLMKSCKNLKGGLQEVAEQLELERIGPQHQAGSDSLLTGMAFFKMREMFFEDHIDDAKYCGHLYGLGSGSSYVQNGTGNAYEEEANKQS
Experimental: Surface plasmon resonance (SPR) was used to evaluate the binding of compounds to CNOT7. Experiments were performed on a Biacore 8K (Cytiva) with a running buffer consisting of 20 mM HEPES pH7.5, 100 mM KCl, 3 mM MgCl2, 1 mM TCEP, 0.05% tween-20, 2% DMSO. Briefly, biotinylated CNOT7 (Ichor Life Sciences) at a concentration of 70 μg/ml was immobilized to a streptavidin coated chip (Cytiva sensor chip SA) for 1200 sec at a flow rate of 5 μl/min (typical immobilization level 7,500 RU). For compound binding experiments, various concentrations of analyte were flowed over the chip with 120 sec association phase, 120 sec dissociation phase, at a flow rate of 30 ul/min and collection rate of 10 Hz. Reference channel subtraction and solvent correction were applied to all sensograms prior to data analysis. Sensograms were fit to 1:1 steady state affinity model. FIGS. 3 and 4 show the binding of exemplary compounds and the AMP control (a known CNOT7 active site binder) at various concentrations to CNOT7.
`O=C(CSc1cc[nH]c(=O)n1)NCc1ccc2c(c1)OCO2` [Compound I-2] was tested, and the Kd was > 25 µM. `Cc1c[nH]c(=O)nc1SCC(=O)N(C)Cc1ccc2c(c1)OCO2` [Compound I-6] was tested, and the Kd was > 25 µM.

Same assay, conditions: Table 5; dissociation constant for CNOT7 by SPR
`COc1ccc([C@H](NC(=O)CSc2nc(=O)[nH]cc2C)C(F)(F)F)cc1` [Compound I-221] showed a Kd of 1 to 25 µM. With `COc1ccc(CNC(=O)CNc2nc(=O)[nH]cc2C)cc1` [Compound I-32] the Kd was > 25 µM. `COc1ccc(C2(NC(=O)CSc3nc(=O)[nH]cc3Cl)CC2)cc1F` [Compound I-307] gave a Kd of 0.1 to 1 µM. `COCCOCCC(Sc1nc(=O)[nH]cc1C)C(=O)NCc1ccc(OC)cc1` (centres unmarked) [Compound I-165, 4-(2-methoxyethoxy)-N-[(4-methoxyphenyl)methyl]-2-[(5-methyl-2-oxo-1H-pyrimidin-4-yl)sulfanyl]butanamide] was tested, and the Kd was 1 to 25 µM. With `Cc1c[nH]c(=O)nc1SCC(=O)NC(C)c1ccc(S(C)(=O)=O)cc1` (centres unmarked) [Compound I-294] the Kd was 1 to 25 µM. `COc1ccc([C@@H](C)NC(=O)CSc2[nH]c(=O)[nH]c(=O)c2C)cc1` [Compound I-242] was tested, and the Kd was > 25 µM. With `COc1ccc([C@H](C)NC(=O)CSc2nc(=O)[nH]cc2C)cc1` [Compound I-26] the Kd was > 25 µM. With `COc1ccc(C(C)NC(=O)CSc2nc(=O)[nH]cc2OC)cc1` (centres unmarked) [Compound I-230] the Kd was > 25 µM. In the case of `COc1ccc(C(C)NC(=O)CSc2nc(=O)[nH]cc2C2CC2)cc1` (centres unmarked) [Compound I-225], the Kd is reported as > 25 µM. `COC[C@H](Sc1nc(=O)[nH]cc1C)C(=O)N[C@H](C)c1ccc2c(c1)CC(=O)N2` [Compound I-193] showed a Kd of 1 to 25 µM.

Same assay, conditions: Table 6; dissociation constant for CNOT7 by SPR
Molecule `COC[C@H](Sc1nc(=O)[nH]cc1C)C(=O)N[C@@H](C)c1ccc2c(c1)CC(=O)N2` [Compound I-325] has a Kd of 1 to 25 µM. Molecule `COc1ccc([C@@H](C)NC(=O)CSc2nc(=O)[nH]cc2C)c(C)c1` [Compound I-248] has a Kd of 0.1 to 1 µM. Work on `Cc1c[nH]c(=O)nc1SCC(=O)N[C@@H](C)c1ccc2c(c1)CC(=O)N2` [Compound I-328] yielded a Kd of 1 to 25 µM. `COc1cc(F)c([C@@H](C)NC(=O)CSc2nc(=O)[nH]cc2Cl)cc1F` [Compound I-311] showed a Kd of 1 to 25 µM. Molecule `COc1ccc([C@@H](NC(=O)CSc2nc(=O)[nH]cc2C)C(C)C)cc1` [Compound I-327] has a Kd of 1 to 25 µM. `COc1ccc2c(c1)CCN(C(=O)CSc1nc(=O)[nH]cc1C)[C@@H]2C` [Compound I-199] was tested, and the Kd was 0.1 to 1 µM. For `COCCOC[C@H](Sc1nc(=O)[nH]cc1C)C(=O)N[C@H](C)c1ccc(OC)cc1` [Compound I-173], the Kd was 1 to 25 µM.

Same assay, conditions: dissociation constant by SPR, Table 7
`COC[C@H](Sc1nc(=O)[nH]cc1C)C(=O)N[C@@H](C)c1ccc2c(c1)CC(=O)N2` [Compound I-325] showed a Kd of 1 to 25 µM. Molecule `Cc1c[nH]c(=O)nc1SCC(=O)N[C@@H](C)c1ccc2c(c1)CC(=O)N2` [Compound I-328] has a Kd of 1 to 25 µM. `[N-]=[N+]=NCCOCCOCCOCC[C@@H](Sc1nc(=O)[nH]cc1Cl)C(=O)NCc1ccc2c(c1)CC(=O)N2` [Compound I-409] was tested, and the Kd was > 25 µM. For `COc1ccc(CNC(=O)C(CCC(=O)N2CCN(C)CC2)Sc2nc(=O)[nH]cc2C)cc1` (centres unmarked) [Compound I-491], the Kd was > 25 µM. With `COc1ccc([C@@H](C)NC(=O)[C@H](COCCOCCOCCN=[N+]=[N-])Sc2nc(=O)[nH]cc2C)c(F)c1` [Compound I-368] the Kd was 1 to 25 µM. In the case of `COCC(Sc1nc(=O)[nH]cc1C)C(=O)NC(C)c1ccc2c(c1)CC(=O)N2` (centres unmarked) [Compound I-331], the Kd is reported as 1 to 25 µM. In the case of `COc1ccc([C@@H](NC(=O)CSc2nc(=O)[nH]cc2C)C(C)C)cc1` [Compound I-327], the Kd is reported as 1 to 25 µM. With `[N-]=[N+]=NCCOCCOCCOCC[C@H](Sc1nc(=O)[nH]cc1Cl)C(=O)NCc1ccc2c(c1)CC(=O)N2` [Compound I-410] the Kd was > 25 µM. `COc1ccc([C@@H](C)NC(=O)[C@@H](COCCOCCOCCN=[N+]=[N-])Sc2nc(=O)[nH]cc2Cl)c(F)c1` [Compound I-392] was tested, and the Kd was 1 to 25 µM. Work on `C#CCOCCOCCOCCOC[C@@H]1Cc2cc(OC)ccc2[C@@H](C)N1C(=O)CSc1nc(=O)[nH]cc1Cl` [Compound I-432] yielded a Kd of 1 to 25 µM. `COc1ccc2c(c1)C[C@@H](COCCOCCOCCOCCN=[N+]=[N-])N(C(=O)CSc1nc(=O)[nH]cc1Cl)C2` [Compound I-415] was tested, and the Kd was > 25 µM. `COc1ccc2c(c1)[C@H](COCCOCCOCCOCCN=[N+]=[N-])CN(C(=O)CSc1nc(=O)[nH]cc1Cl)[C@@H]2C` [Compound I-426] gave a Kd of 1 to 25 µM. For `COC[C@@H](Sc1nc(=O)[nH]cc1Cl)C(=O)N[C@H](C)c1ccc2c(c1)CC(=O)N2` [Compound I-333], the Kd was 1 to 25 µM.
